Laboratory results: patent publication US20220081412A1, “QUINOLINYL-PYRAZINE-CARBOXAMIDE COMPOUNDS AND USES THEREOF” (The Regents of the University of Michigan, priority 2018, published 2022)

Tested on: MIA PaCa-2 cells
Assay: Bru-seq analysis for nascent RNA synthesis (log2FC of genes, GSEA gene sets)
Format: cell-based, human
Settings: 4 h, MIA PaCa-2 cells
[1] = top upregulated protein-coding genes
[2] = upregulated gene sets, HALLMARK

Cc1cc(NC(=O)c2cnc(N3CCNCC3)cn2)c2ncccc2c1 [J28, N-(6-methylquinolin-8-yl)-5-(piperazin-1-yl)pyrazine-2-carboxamide]
log2FC UAP1L1 [1]: 1.26
log2FC ZC3H12A [1]: 1.27
ES AMUNDSON_GAMMA_RADIATION_RESPONSE (upregulated gene sets, C2): 0.673
ES BANDRES_RESPONSE_TO_CARMUSTIN_MGMT_48HR_DN (upregulated gene sets, C2): 0.612
ES CAMPS_COLON_CANCER_COPY_NUMBER_UP (upregulated gene sets, C2): 0.653
ES DACOSTA_UV_RESPONSE_VIA_ERCC3_UP (upregulated gene sets, C2): 0.506
ES DAIRKEE_TERT_TARGETS_UP (upregulated gene sets, C2): 0.528
ES DEBIASI_APOPTOSIS_BY_REOVIRUS_INFECTION_DN (upregulated gene sets, C2): 0.488
ES DIRMEIER_LMPl_RESPONSE_EARLY (upregulated gene sets, C2): 0.670
ES ENK_UV_RESPONSE_KERATINOCYTE_UP (upregulated gene sets, C2): 0.501
ES FERREIRA_EWINGS_SARCOMA_UNSTABLE_VS_STABLE_DN (upregulated gene sets, C2): 0.623
ES GINESTIER_BREAST_CANCER_ZNF217_AMPLIFIED_DN (upregulated gene sets, C2): 0.481
ES HORTON_SREBF_TARGETS (upregulated gene sets, C2): 0.807
ES KEGG_SYSTEMIC_LUPUS_ERYTHEMATOSUS (upregulated gene sets, C2): 0.661
ES KIM_ALL_DISORDERS_DURATION_CORR_DN (upregulated gene sets, C2): 0.615
ES LEONARD_HYPDXIA (upregulated gene sets, C2): 0.716
ES MARTENS_TRETINOIN_RESPONSE_UP (upregulated gene sets, C2): 0.552
ES NIKOLSKY_BREAST_CANCER_16P13_AMPLICON (upregulated gene sets, C2): 0.699
ES NIKOLSKY_BREAST_CANCER_16Q24_AMPLICON (upregulated gene sets, C2): 0.706
ES QI_HYPOXIA (upregulated gene sets, C2): 0.559
ES REACTOME_AMYLOIDS (upregulated gene sets, C2): 0.710
ES REACTOME_CHOLESTEROL_BIOSYNTHESIS (upregulated gene sets, C2): 0.821
ES REACTOME_PEPTIDE_CHAIN_ELONGATION (upregulated gene sets, C2): 0.564
ES REACTOME_RNA_POL_I_PROMOTER_OPENING (upregulated gene sets, C2): 0.769
ES REACTOME_RNA_POL_I_TRANSCRIPTION (upregulated gene sets, C2): 0.622
ES RICKMAN_METASTASIS_DN (upregulated gene sets, C2): 0.556
ES SCHMIDT_POR_TARGETS_IN_LIMB_BUD_UP (upregulated gene sets, C2): 0.788
NES AMUNDSON_GAMMA_RADIATION_RESPONSE (upregulated gene sets, C2): 2.280
NES BANDRES_RESPONSE_TO_CARMUSTIN_MGMT_48HR_DN (upregulated gene sets, C2): 2.308
NES CAMPS_COLON_CANCER_COPY_NUMBER_UP (upregulated gene sets, C2): 2.238
NES DACOSTA_UV_RESPONSE_VIA_ERCC3_UP (upregulated gene sets, C2): 2.272
NES DAIRKEE_TERT_TARGETS_UP (upregulated gene sets, C2): 2.400
NES DEBIASI_APOPTOSIS_BY_REOVIRUS_INFECTION_DN (upregulated gene sets, C2): 2.211
NES DIRMEIER_LMPl_RESPONSE_EARLY (upregulated gene sets, C2): 2.238
NES ENK_UV_RESPONSE_KERATINOCYTE_UP (upregulated gene sets, C2): 2.338
NES FERREIRA_EWINGS_SARCOMA_UNSTABLE_VS_STABLE_DN (upregulated gene sets, C2): 2.223
NES GINESTIER_BREAST_CANCER_ZNF217_AMPLIFIED_DN (upregulated gene sets, C2): 2.203
NES HORTON_SREBF_TARGETS (upregulated gene sets, C2): 2.353
NES KEGG_SYSTEMIC_LUPUS_ERYTHEMATOSUS (upregulated gene sets, C2): 2.294
NES KIM_ALL_DISORDERS_DURATION_CORR_DN (upregulated gene sets, C2): 2.457
NES LEONARD_HYPDXIA (upregulated gene sets, C2): 2.369
NES MARTENS_TRETINOIN_RESPONSE_UP (upregulated gene sets, C2): 2.244
NES NIKOLSKY_BREAST_CANCER_16P13_AMPLICON (upregulated gene sets, C2): 2.231
NES NIKOLSKY_BREAST_CANCER_16Q24_AMPLICON (upregulated gene sets, C2): 2.371
NES QI_HYPOXIA (upregulated gene sets, C2): 2.230
NES REACTOME_AMYLOIDS (upregulated gene sets, C2): 2.374
NES REACTOME_CHOLESTEROL_BIOSYNTHESIS (upregulated gene sets, C2): 2.387
NES REACTOME_PEPTIDE_CHAIN_ELONGATION (upregulated gene sets, C2): 2.220
NES REACTOME_RNA_POL_I_PROMOTER_OPENING (upregulated gene sets, C2): 2.411
NES REACTOME_RNA_POL_I_TRANSCRIPTION (upregulated gene sets, C2): 2.250
NES RICKMAN_METASTASIS_DN (upregulated gene sets, C2): 2.370
NES SCHMIDT_POR_TARGETS_IN_LIMB_BUD_UP (upregulated gene sets, C2): 2.303
ES HALLMARK_ADIPOGENESIS [2]: 0.383
ES HALLMARK_ANDROGEN_RESPONSE [2]: 0.356
ES HALLMARK_APICAL_JUNCTION [2]: 0.359
ES HALLMARK_APOPTOSIS [2]: 0.390
ES HALLMARK_BILE_ACID_METABOLISM [2]: 0.361
ES HALLMARK_CHOLESTEROL_HOMEOSTASIS [2]: 0.656
ES HALLMARK_COAGULATION [2]: 0.474
ES HALLMARK_DNA_REPAIR [2]: 0.336
ES HALLMARK_ESTROGEN_RESPONSE_EARLY [2]: 0.354
ES HALLMARK_ESTROGEN_RESPONSE_LATE [2]: 0.335
ES HALLMARK_FATTY_ACID_METABOLISM [2]: 0.392
ES HALLMARK_GLYCOLYSIS [2]: 0.321
ES HALLMARK_HEME_METABOLISM [2]: 0.367
ES HALLMARK_HYPOXIA [2]: 0.479
ES HALLMARK_MTORC1_SIGNALING [2]: 0.436
ES HALLMARK_MYOGENESIS [2]: 0.560
ES HALLMARK_NOTCH_SIGNALING [2]: 0.494
ES HALLMARK_OXIDATIVE_PHOSPHORYLATION [2]: 0.351
ES HALLMARK_P53_PATHWAY [2]: 0.471
ES HALLMARK_PEROXISOME [2]: 0.379
ES HALLMARK_PI3K_AKT_MTOR_SIGNALING [2]: 0.426
ES HALLMARK_UNFOLDED_PROTEIN_RESPONSE [2]: 0.433
ES HALLMARK_UV_RESPONSE_UP [2]: 0.436
ES HALLMARK_WNT_BETA_CATENIN_SIGNALING [2]: 0.481
ES HALLMARK_XENOBIOTIC_METABOLISM [2]: 0.348
NES HALLMARK_ADIPOGENESIS [2]: 1.653
NES HALLMARK_ANDROGEN_RESPONSE [2]: 1.381
NES HALLMARK_APICAL_JUNCTION [2]: 1.422
NES HALLMARK_APOPTOSIS [2]: 1.615
NES HALLMARK_BILE_ACID_METABOLISM [2]: 1.330
NES HALLMARK_CHOLESTEROL_HOMEOSTASIS [2]: 2.374
NES HALLMARK_COAGULATION [2]: 1.628
NES HALLMARK_DNA_REPAIR [2]: 1.407
NES HALLMARK_ESTROGEN_RESPONSE_EARLY [2]: 1.458
NES HALLMARK_ESTROGEN_RESPONSE_LATE [2]: 1.358
NES HALLMARK_FATTY_ACID_METABOLISM [2]: 1.605
NES HALLMARK_GLYCOLYSIS [2]: 1.363
NES HALLMARK_HEME_METABOLISM [2]: 1.548
NES HALLMARK_HYPOXIA [2]: 1.984
NES HALLMARK_MTORC1_SIGNALING [2]: 1.917
NES HALLMARK_MYOGENESIS [2]: 2.098
NES HALLMARK_NOTCH_SIGNALING [2]: 1.473
NES HALLMARK_OXIDATIVE_PHOSPHORYLATION [2]: 1.548
NES HALLMARK_P53_PATHWAY [2]: 1.986
NES HALLMARK_PEROXISOME [2]: 1.483
NES HALLMARK_PI3K_AKT_MTOR_SIGNALING [2]: 1.634
NES HALLMARK_UNFOLDED_PROTEIN_RESPONSE [2]: 1.739
NES HALLMARK_UV_RESPONSE_UP [2]: 1.773
NES HALLMARK_WNT_BETA_CATENIN_SIGNALING [2]: 1.483
NES HALLMARK_XENOBIOTIC_METABOLISM [2]: 1.415
